Experimental data reported in US11019823B2, “Method of controlling water surface inhabiting pests” (SHA'KED MICROBIAL SOLUTIONS LTD., priority 2013, dated 2021).

Experiments:
[1] = test system: Culex quinquefasciatus eggs; assay: Mosquito egg bioassay in spot plates, probit analysis; format: in vivo
Procedure: Mosquito eggs were obtained from the Center for Disease control in Fort Collins, Colo. The eggs were counted and transferred to spot plates containing 8 ml of NaDCC anhydrous solution at 0, 50, 500, 5000, and 50,000 ppm. Each treatment concentration and control (0 ppm) was replicated 3 times within the same spot plate and transferred to an incubator set for 30° C. and 12 hrs of light and dark alterations for 25 hours. […] Larvae were counted as living, hatched dead, or unhatched dead 25 hrs after the bioassay was initiated. Larvae were only counted as hatched if they were completely free from their egg casing. Data were analyzed by probit analysis with the PROBIT Procedure in SAS (Version 9.2, Cary N.C.), producing an LC95 and natural response rate.

Anopheles stevensi eggs = conditions: 72 hrs, 30° C., probit analysis
Procedure: Data were analyzed by probit analysis with the PROBIT Procedure in SAS (Version 9.2, Cary N.C.).

A. aegypti eggs = assay: Mosquito egg bioassay in spot plates, probit analysis; format: in vivo, Aedes aegypti
Procedure: A. aegypti eggs were obtained from the Center for Disease control in Fort Collins, Colo. The eggs were counted and transferred to spot plate treatment or control wells, and placed in an incubator. Larvae were counted as living, hatched dead, or unhatched dead 72 hours after the bioassay was initiated. […] The LC95 for A. aegypti was 470 ppm.

[2] = test system: Non-biting midge eggs (Chironomidae: Tanypodinae); conditions: a week, 30° C., probit analysis
Procedure: Non-biting midge eggs (Chironomidae: Tanypodinae) were obtained from the pond at Town Park, Auburn, Ala. The eggs were counted and transferred to spot plates containing 8 ml of NaDCC anhydrous solution at 0, 50, 500, 5000, and 50,000 ppm. Each treatment and control was replicated 3 times within the same spot plate and transferred to an incubator set for 30° C. and 12 hours of light and dark alterations for a week. Data were analyzed by probit analysis with the PROBIT Procedure in SAS (Version 9.2, Cary N.C.). Larvae were only counted as hatched if they were completely free from their egg casing.

[3] = Dissolution study: release of free available chlorine / NaDCC from floating pellets in deionized water (orthotolidine colorimetry, 436 nm); format: physicochemical
Procedure: The ability of the pellet to release free available chlorine from the water soluble NaDCC was measured over time using a colorimeric method. Three pellets were selected at random from the kilogram batch that was created. The dimensions and mass of each pellet was recorded and the pellets were added to an 800 ml high density polyethylene (HDPE) beaker filled with deionized water and covered with aluminum foil. NaDCC (0.1975 g) was added to a separate 800 ml plastic beaker as a control. 0.8 ml aliquots of each solution were pipetted into 50 ml volumetic flasks and brought to volume with deionized water. 10 ml aliquots of these diluted solutions were mixed with 100 μl of 0.1% orthotolidine in a vial, forming a clear, yellow solution. The solution was loaded into a cuvette and was analyzed using a Shimadzu UV160U UV-Vis Spectrophotometer at 436 nm.
Initial sample pulls occurred 15 minutes after the pellets and control sample were added to the water. Additional pulls were taken at about 2, 9, 11, 13, 15, 17, 24, and 36 hours.
Upon exposure to water, NaDCC breaks down to release free available chlorine that acts as an algae growth inhibitor. Orthotolidine reacts with the chlorine causing a color change allowing for colorimetic analysis to chart the dissolution of the NaDCC. The concentration of NaDCC released at each time point was calculated by constructing a calibration curve relating the free available chlorine response to the initial concentration of NaDCC. The initial concentration of NaDCC calculation is shown in Equation 1. The original aliquot of the control taken at the 15 minute mark was used to create standards ranging from 25-250 ppm. Concentration of initial NaDCC=initial mass of NaDCC/volume of deionized water Equation 1: 197.5 mg/0.800 L=246.9 ppm

[4] = test system: toxic cyanobacterium Oscillatoria sp.; conditions: 1.6 g NaDCC per enclosure of about 270 liter (Example 5)
[5] = test system: cyanobacterium Oscillatoria sp.; conditions: 1.2 g NaDCC per enclosure (Example 6)
[6] = test system: non-motile eggs of the insects; assay: Concentrated hypochlorite on insect egg hatching; format: in vivo; conditions: 250-500 ppm of concentrated hypochlorite
Text: In certain aspects the methods of the present invention target the non-motile eggs of the insects. 250-500 ppm of concentrated hypochlorite caused 95% of egg populations not to hatch.

O=c1nc([O-])n(Cl)c(=O)n1Cl.[Na+] [NaDCC anhydrous, Sodium Dichloroisocyanurate (NaDCC) Anhydrous]
state of egg shells ([1]; 5000 ppm treatment): mostly dissolved | state of egg shells ([1]; 50,000 ppm treatment): dissolved and unperceivable | LC95 ([1]; 25 hrs, 30° C., probit analysis): 93.8 ppm | LC95 (Anopheles stevensi eggs): 270 ppm | state of egg shells (A. aegypti eggs; 5000 ppm treatment): mostly dissolved | state of egg shells (A. aegypti eggs; 50,000 ppm treatment): dissolved and unperceivable | LC95 (A. aegypti eggs; 72 hours, probit analysis): 470 ppm | LC95 [2]: 205.7 ppm

O=c1nc([O-])n(Cl)c(=O)n1Cl.[Na+] [NaDCC, sodium dichloroisocyanurate]
Concentration of NaDCC released ([3]; 0.25 hours): 241.5 ppm | Response ([3]; 0.25 hours, 436 nm, orthotolidine, 800 ml deionized water): 2.053 AU | Concentration of NaDCC released ([3]; 2.17 hours): 228.4 ppm | Response ([3]; 2.17 hours): 1.941 AU | Concentration of NaDCC released ([3]; 9.17 hours): 237.9 ppm | Response ([3]; 9.17 hours): 2.022 AU | Concentration of NaDCC released ([3]; 11.00 hours): 215.4 ppm | Response ([3]; 11.00 hours): 1.831 AU | Concentration of NaDCC released ([3]; 13.42 hours): 238.8 ppm | Response ([3]; 13.42 hours): 2.030 AU | Concentration of NaDCC released ([3]; 15.42 hours): 233.9 ppm | Response ([3]; 15.42 hours): 1.988 AU | Concentration of NaDCC released ([3]; 17.67 hours): 231.5 ppm | Response ([3]; 17.67 hours): 1.968 AU | Concentration of NaDCC released ([3]; 24.00 hours): 217.6 ppm | Response ([3]; 24.00 hours): 1.850 AU | Concentration of NaDCC released ([3]; 36.00 hours): 237.1 ppm | Response ([3]; 36.00 hours): 2.015 AU | effect on cyanobacterial infestation [4]: total elimination of the cyanobacterial infestation | effect on cyanobacterial infestation [5]: total elimination of the cyanobacterial infestation

OCl [hypochlorite]
egg populations not hatching [6]: 95%
